Laboratory results from patent publication US20180177219A1, “FAST-DISSOLVING CO-CRYSTALLINE LACTOSE” (NESTEC S.A., priority 2015, published 2018).

Columns and labels:
Assay type in all cases: physicochemical
[1] = Dissolution kinetics by online refractometry (normalized refractive index), stirred; conditions: particle size 60-90 μm; for amount of solid dissolved in water within 20 seconds: 60 ml, stirring 500 rpm, ambient temperature (20° C.)
Experimental: Dissolution kinetics were measured by online-refractometry in water over a time period of 0 to 100 seconds while stirring at 500 rpm at ambient temperature (20° C.).
The dissolution kinetics of 2 g of lactose.CaCl2.7 H2O co-crystals in water (♦) in comparison to 1.24 g of pure lactose monohydrate in water (▪), 1.24 g of lactose monohydrate in 0.52 g calcium chloride solution (▴) and a physical mixture of 1.24 g of lactose monohydrate and 0.52 g of calcium chloride dihydrate in water (X) were measured by refractometry at room temperature over a time period of 0 to 100 seconds while stirring the solution.

[2] = Dynamic vapor sorption (moisture tolerance); conditions: 25° C., 120 hours, relative humidity augmented stepwise
Experimental: The physical mixture contains the same molar quantities of lactose and calcium chloride as compared to the co-crystalline material. The straight (horizontal) line corresponds to an uptake of five equivalents of water. dm: mass gain in percent; RH: relative humidity in percent.
Dynamic vapor sorption experiments were performed for lactose.calcium salt co-crystals in comparison to a physical mixture of lactose monohydrate and calcium chloride dihydrate. The physical mixture contains the same molar quantities of lactose and calcium chloride as compared to the co-crystalline material.
Measurements were conducted over 120 hours at a temperature of 25° C. and relative humidity was augmented stepwise until the samples fully liquefied.

[3] = Dissolution of an individual crystal filmed under a microscope, no agitation; conditions: room temperature; for time to complete dissolution of an individual crystal: crystals comparable in size and morphology
Experimental: The dissolution of the individual crystals was filmed under a microscope using a high-resolution camera and film-stills of the progressing dissolution were analyzed (area of remaining solid material) until complete dissolution was achieved.
Dissolution kinetics were measured over a time period of 0 to 36 seconds.
The dissolution kinetics of an individual α-lactose.CaCl2.7 H2O co-crystal (▪) in comparison to α-lactose monohydrate (▴) in water were determined. Dissolution kinetics were measured over a time period of 0 to 36 seconds at room temperature without stirring.

| SMILES | amount of solid dissolved in water within 20 seconds [1] | moisture absorption behaviour [2] | moisture tolerance compared to physical mixture of lactose monohydrate and calcium chloride dihydrate [2] | dissolution speed relative to lactose monohydrate (times faster) ([3]; individual crystal, water, without stirring) [times] | time to complete dissolution of an individual crystal ([3]; water, without stirring) | amount of solid dissolved in calcium chloride solution within 20 seconds ([1]; 1.24 g in 0.52 g calcium chloride solution, stirring, room temperature) | time for complete dissolution relative to lactose.CaCl2.7 H2O co-crystal (times as long) ([3]; individual crystal, liquid phase not agitated) |
| --- | --- | --- | --- | --- | --- | --- | --- |
| O.O.O.O.O.O.O.OC[C@H]1O[C@@H](O[C@H]2[C@H](O)[C@@H](O)C(O)O[C@@H]2CO)[C@H](O)[C@@H](O)[C@H]1O.[Ca+2].[Cl-].[Cl-] (stereo partly drawn) [lactose.CaCl2.7 H2O co-crystals, lactose.calcium chloride.7 H2O] | about 85% | gradually continued to absorb moisture in parallel with augmentation of relative humidity | improved moisture tolerance | 14 to 15 | about 2.5 seconds | – | – |
| O.OC[C@H]1O[C@@H](O[C@H]2[C@H](O)[C@@H](O)C(O)O[C@@H]2CO)[C@H](O)[C@@H](O)[C@H]1O (stereo partly drawn) [lactose monohydrate, reference compound] | about 20% | – | – | – | about 36 seconds | about 30% | roughly seven |
